From US6610270B1, “In vivo determination of metabolic function for use in therapy management” (Xanthus Life Sciences, Inc., priority 1998, dated 2003)
Where two headings read alike, the source gives them in different places. Square brackets hold non-standard residues; d marks the D form. Peptide text beside a SMILES is read from it. * marks the point of attachment. pNA = O=[N+]([O-])c1ccc(N*)cc1; Abu = CC[C@H](N)C(=O)O

Key:
[1] = system: Aminopeptidase P (APP); conditions: Rat Plasma
[2] = system: Aminopeptidase P (APP); conditions: Human BAL
[3] = biological target: T1, DPPIV (Rattus norvegicus, UniProt P14740); assay: plasma enzyme activity towards DPPIV substrates in septic rat model; type: biochemical, Sprague-Dawley rats
T1 construct: from tissue; host or cells: plasma of control and septic rats
T1 sequence (P14740 37-767 limits assumed): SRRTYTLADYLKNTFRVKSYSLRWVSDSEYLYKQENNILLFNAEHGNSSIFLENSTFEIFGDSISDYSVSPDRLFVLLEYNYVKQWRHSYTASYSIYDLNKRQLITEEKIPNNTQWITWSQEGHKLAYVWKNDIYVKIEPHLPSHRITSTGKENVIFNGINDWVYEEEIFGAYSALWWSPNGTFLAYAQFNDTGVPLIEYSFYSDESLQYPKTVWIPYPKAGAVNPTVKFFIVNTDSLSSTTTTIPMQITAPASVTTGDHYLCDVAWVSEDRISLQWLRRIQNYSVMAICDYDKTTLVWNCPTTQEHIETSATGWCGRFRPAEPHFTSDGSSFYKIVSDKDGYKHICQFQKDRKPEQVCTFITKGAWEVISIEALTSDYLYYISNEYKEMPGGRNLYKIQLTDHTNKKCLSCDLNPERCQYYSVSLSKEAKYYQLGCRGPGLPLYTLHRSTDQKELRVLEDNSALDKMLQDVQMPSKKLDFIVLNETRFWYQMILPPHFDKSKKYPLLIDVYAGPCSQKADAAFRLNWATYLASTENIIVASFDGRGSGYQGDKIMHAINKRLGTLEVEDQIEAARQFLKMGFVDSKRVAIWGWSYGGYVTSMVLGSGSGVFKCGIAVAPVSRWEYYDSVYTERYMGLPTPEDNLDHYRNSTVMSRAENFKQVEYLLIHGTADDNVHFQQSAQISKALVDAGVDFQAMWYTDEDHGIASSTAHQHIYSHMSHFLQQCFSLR
Description: (§1) Accordingly, ten male Sprague-Dawley rats, weighing approximately 300 gr., were injected with 3.5 mg/kg of GPA (prepared by sterile ultrafiltration in saline) and placed into metabolic cages for ^13CO2 collection (by alkaline trapping in seven 0.5 hour increments), in general as described by Vann et al. A blood draw of 0.4 ml was taken prior to the tracer administration to provide a baseline plasma titer for in vivo DPPIV activity. The following day, the rats were separated into a control panel and a test panel. Each of the three animals in the test panel was made septic (on Day 0) by intravenous (tail vein) adminstration of E. coli. Three control animals were sham injected with saline, and all were maintained in separate cages.
(§2) On day 2 and 6, and after a […], the administration of the “breath test” metaprobe and ^13CO2 collection was repeated. Equal aliquots of plasma were assayed for enzyme activity by spectrophotometry in two ways: a) using GP4NA (FIG. 16, structure I), a traditional and confirmatory approach, and b) using GPPaba (FIG. 16, structure III with R1 being the protonated free acid) by GC/MS quantitation of the p-aminobenzoic[1-^13C] acid (Paba, FIG. 16, structure IV) derived hydrolytically. The isotopic enrichment of the seven breath collections was measured by isotope ratio mass spectrometry, of the gas liberated after phosphoric acid protonation. The cumulative extent of metaprobe metabolism, as a per cent of dose taking into account the total CO2 production rate of each animal (Mohan et al.) was then calculated.
(§3) Also, over the 7 day experiment, the specific activity of plasma towards GP4NA in the control group averaged 29±6 nMol/min/ml while the septic titer rose to 43±7 and 49±6 on days two and six, respectively. The corresponding values of plasma activity towards GPPaba in the control group averaged 18±7 nMol/min/ml while the septic titer rose to 55±17 and 30±6 on days two and six, respectively. A “sham” breath test using 1.5 mg/kg administration of L-2-aminobutyric[1-^13C] acid in saline on day 3 of the experiment confirmed that oxidation of the release tag was similar in control and test groups, affording a cumulative oxidation of 65±8.3 and 72±9.4 per cent of dose recovery in 3 hours, respectively.

[4] = biological target: T2, Dipeptidyl peptidase IV (DPPIV) (Sus scrofa, UniProt P22411); assay: in-vitro Michaelis-Menten assay with dipeptidyl peptidase reference enzyme; type: biochemical; conditions: read-out: apparent Km
T2 construct: purchased Sigma-Aldrich D7052
T2 sequence (P22411 whole entry): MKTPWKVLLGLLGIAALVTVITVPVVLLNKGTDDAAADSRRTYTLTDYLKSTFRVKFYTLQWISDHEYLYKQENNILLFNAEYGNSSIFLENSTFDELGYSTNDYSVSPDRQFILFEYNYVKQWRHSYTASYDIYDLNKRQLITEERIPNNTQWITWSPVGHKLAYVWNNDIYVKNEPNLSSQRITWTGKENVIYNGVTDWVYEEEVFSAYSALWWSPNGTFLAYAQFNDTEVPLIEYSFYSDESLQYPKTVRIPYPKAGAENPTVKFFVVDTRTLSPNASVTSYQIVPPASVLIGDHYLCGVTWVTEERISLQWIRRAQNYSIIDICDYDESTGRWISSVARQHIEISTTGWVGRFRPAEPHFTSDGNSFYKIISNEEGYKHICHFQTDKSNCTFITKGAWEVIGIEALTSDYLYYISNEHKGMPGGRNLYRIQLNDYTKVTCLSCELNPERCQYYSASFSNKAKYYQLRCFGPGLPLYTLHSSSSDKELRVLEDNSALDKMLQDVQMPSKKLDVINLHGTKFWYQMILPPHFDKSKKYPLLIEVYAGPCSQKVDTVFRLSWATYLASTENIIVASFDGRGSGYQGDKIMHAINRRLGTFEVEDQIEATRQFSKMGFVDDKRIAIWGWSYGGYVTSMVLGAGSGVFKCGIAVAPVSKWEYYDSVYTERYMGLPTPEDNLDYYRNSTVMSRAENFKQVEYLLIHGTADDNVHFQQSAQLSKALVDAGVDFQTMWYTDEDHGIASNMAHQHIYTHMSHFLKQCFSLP
From the text: Dipeptidyl peptidase reference enzyme was purchased from Sigma-Aldrich (D7052) and assayed by the standard Michaelis-Menten method described in similar studies by Barth and co-workers (Heins, et al.; Rahfeld, et al.). […] Hydrolysis of the latter was quantitated by isotope dilution GC/MS of the N-trifluoroacetyl-propyl ester, using L-2-aminobutyric[^2H5] acid as the internal standard.

[5] = biological target: T3, Dipeptidyl Peptidase IV (DPPIV/CD26) (Rattus norvegicus, UniProt P14740); assay: DPPIV metaprobe breath test in the septic rat; type: in vivo, Sprague-Dawley rats; conditions: 3.5 mg/kg injected
T3 construct: from tissue; host or cells: whole rat in vivo (injected dose, 13CO2 collection)
T3 sequence (P14740 whole entry): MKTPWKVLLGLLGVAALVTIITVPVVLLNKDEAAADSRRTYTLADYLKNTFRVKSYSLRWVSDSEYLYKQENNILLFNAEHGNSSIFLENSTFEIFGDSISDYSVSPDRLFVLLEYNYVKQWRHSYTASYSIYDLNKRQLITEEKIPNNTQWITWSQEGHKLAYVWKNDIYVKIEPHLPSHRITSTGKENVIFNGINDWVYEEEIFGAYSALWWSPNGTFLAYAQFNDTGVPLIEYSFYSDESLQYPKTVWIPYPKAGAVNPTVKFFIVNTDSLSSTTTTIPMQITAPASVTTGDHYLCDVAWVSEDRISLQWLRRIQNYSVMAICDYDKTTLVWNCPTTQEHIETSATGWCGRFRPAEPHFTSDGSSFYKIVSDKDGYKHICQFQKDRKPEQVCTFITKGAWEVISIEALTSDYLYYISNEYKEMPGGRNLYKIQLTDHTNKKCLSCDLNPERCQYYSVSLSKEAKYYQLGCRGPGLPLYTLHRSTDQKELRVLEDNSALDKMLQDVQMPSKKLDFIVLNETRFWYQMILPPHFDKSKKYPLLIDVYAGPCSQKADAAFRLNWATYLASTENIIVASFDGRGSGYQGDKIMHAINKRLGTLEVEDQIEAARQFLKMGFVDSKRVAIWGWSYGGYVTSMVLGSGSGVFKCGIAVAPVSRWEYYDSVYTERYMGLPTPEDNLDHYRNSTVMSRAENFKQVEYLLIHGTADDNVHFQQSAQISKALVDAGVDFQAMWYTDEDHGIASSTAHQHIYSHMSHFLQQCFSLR
Description: as §1, §2

[6] = sham breath test with free core tracer in septic rat model; type: in vivo, Sprague-Dawley rats; conditions: 1.5 mg/kg in saline, day 3, in 3 hours
Description: as §3

[7] = system: nitric oxide synthase (NOS)
From the text: These studies constitute part of a continuing series intended to extend the protocols initiated by Castillo et al. (1996) and depend on intravenous metaprobe administration and mass spectral analysis of the resulting analytes extracted from plasma.

[8] = biological target: T4, bovine plasmin (Bos taurus, UniProt P06868); assay: metaprobe hydrolysis in solution by purified plasmin; type: biochemical; conditions: 1 WHO unit, pH 8.4, 37° C., 15 minutes
T4 construct: Freshly prepared solutions of bovine thrombin and bovine plasmin, from reconstituted lyophilized powders (Sigma); purchased Sigma
T4 sequence (P06868 584-812 limits assumed): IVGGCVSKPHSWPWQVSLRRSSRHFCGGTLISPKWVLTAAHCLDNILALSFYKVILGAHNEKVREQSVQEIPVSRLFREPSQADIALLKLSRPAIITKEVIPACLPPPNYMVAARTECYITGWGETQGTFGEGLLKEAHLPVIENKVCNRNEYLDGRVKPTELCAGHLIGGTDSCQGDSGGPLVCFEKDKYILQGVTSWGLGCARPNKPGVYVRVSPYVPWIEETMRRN
T4 sequence (P06868 104-583 limits assumed): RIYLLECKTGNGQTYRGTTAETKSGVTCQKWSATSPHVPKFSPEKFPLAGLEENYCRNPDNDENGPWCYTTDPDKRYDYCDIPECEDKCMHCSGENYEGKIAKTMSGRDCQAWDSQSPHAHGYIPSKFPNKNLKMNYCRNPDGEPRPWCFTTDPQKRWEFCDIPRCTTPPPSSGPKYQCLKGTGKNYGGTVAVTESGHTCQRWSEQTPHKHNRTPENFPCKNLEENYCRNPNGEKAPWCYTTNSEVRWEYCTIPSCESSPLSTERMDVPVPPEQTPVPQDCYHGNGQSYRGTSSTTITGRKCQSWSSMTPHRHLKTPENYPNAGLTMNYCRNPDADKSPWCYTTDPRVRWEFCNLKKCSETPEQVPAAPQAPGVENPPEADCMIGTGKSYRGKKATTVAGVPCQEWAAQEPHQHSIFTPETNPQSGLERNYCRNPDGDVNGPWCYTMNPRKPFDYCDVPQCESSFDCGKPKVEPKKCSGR
Description: (§4) The suitability of substrates I-VI was tested by the enzymatic assay protocol of Svendsen. Freshly prepared solutions of bovine thrombin and bovine plasmin, from reconstituted lyophilized powders (Sigma) were prepared in tris-imidazole buffer at pH 8.4 to deliver nominally 0.5 NIH unit per ml of thrombin and 1 WHO unit of plasmin. After preincubation for 5 minutes at 37° C., 0.25 ml of an 0.5 mMolar solution of each substrate in the same aqueous buffer was added and the separate reactions incubated for 15 minutes at the same temperature. Reaction was stopped by addition of 1:9 concentrated HCl:methanol. Concentration of the supernatant, ion exchange chromatography on Dowex-50, with 2N ammonia water eluant, as a further desalting and deproteinizing step, afforded the amino acid fraction resulting from the enzymatic hydrolysis of the metaprobes. The concentration of p-aminobenzoic[1-^13C] acid (with tetradeutero isotopolog as internal quantitation standard) and of L-2-aminobutyric[1-^13C] acid (with pentadeutero isotopolog as internal quantitation standard) were then analyzed by isotope dilution GC/MS using the N-trifluoroacetyl propyl ester derivatives and the total hydrolytic conversion expressed as […]

[9] = biological target: T5, bovine thrombin (Bos taurus, UniProt P00735); assay: metaprobe hydrolysis in solution by purified thrombin; type: biochemical; conditions: 0.5 NIH unit per ml, pH 8.4, 37° C., 15 minutes
T5 construct: Freshly prepared solutions of bovine thrombin and bovine plasmin, from reconstituted lyophilized powders (Sigma); purchased Sigma
Description: as §4

[10] = system: thrombin and plasmin; assay: net coagulant potential (NCP) in whole blood, septic rat model; type: biochemical
[11] = biological target: T6, thrombin (Rattus norvegicus, UniProt P18292); assay: thrombin metaprobe hydrolysis in whole blood, septic rat model; type: biochemical
T6 construct: from tissue; host or cells: unfractionated whole blood of control and septic rats

[12] = biological target: T7, plasmin (Rattus norvegicus, UniProt Q01177); assay: plasmin metaprobe hydrolysis in whole blood, septic rat model; type: biochemical
T7 construct: from tissue; host or cells: unfractionated whole blood of control and septic rats
T7 sequence (Q01177 582-812 limits assumed): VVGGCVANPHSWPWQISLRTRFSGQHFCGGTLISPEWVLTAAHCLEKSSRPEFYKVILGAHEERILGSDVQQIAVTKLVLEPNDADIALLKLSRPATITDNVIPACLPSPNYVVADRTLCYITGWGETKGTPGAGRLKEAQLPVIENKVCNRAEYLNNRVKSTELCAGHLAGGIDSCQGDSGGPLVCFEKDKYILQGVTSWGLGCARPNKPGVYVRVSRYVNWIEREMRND
T7 sequence (Q01177 97-581 limits assumed): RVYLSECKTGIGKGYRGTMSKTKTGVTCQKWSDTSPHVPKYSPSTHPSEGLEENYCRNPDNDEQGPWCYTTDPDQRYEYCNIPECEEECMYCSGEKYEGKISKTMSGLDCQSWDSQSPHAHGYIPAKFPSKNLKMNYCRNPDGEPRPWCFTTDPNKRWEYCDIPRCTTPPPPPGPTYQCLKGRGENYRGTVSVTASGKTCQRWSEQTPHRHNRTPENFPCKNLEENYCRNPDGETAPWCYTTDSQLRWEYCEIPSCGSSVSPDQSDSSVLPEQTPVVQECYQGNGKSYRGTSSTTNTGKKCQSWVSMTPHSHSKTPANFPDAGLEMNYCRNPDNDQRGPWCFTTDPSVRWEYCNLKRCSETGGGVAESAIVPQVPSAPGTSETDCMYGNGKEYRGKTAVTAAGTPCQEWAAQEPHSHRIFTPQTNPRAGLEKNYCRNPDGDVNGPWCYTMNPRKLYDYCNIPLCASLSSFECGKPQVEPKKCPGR

[13] = control group, average over the 7 day experiment

Molecule: CCOC(=O)[C@@H]1CCCN1C(=O)[C@@H]1CCCN1[13C](=O)CN [Aminopeptidase P Metaprobe, glycyl[1-^13C]-L-prolyl-L-proline, ethyl ester]
- % Dose metabolized ([1]; Control): 5 ± 4 % Dose
- % Dose metabolized ([1]; Test sample, Sepsis): 28 ± 7 % Dose
- % Dose metabolized ([2]; Control, two hour incubation at 37° C.): 22 ± 4 % Dose
- % Dose metabolized ([2]; Test sample, ARDS): 44 ± 14 % Dose

Molecule: NCC(=O)N1CCC[C@H]1C(=O)Nc1ccc([N+](=O)[O-])cc1 [GP4NA, Glycyl-Prolyl-4-nitro-anilide, reference compound] (H-Gly-Pro-pNA)
- specific activity of plasma towards substrate [3, 13]: 29 ± 6 nmol/min/mL
- specific activity of plasma towards substrate ([3]; septic, day six): 49 ± 6 nmol/min/mL
- specific activity of plasma towards substrate ([3]; septic, day two): 43 ± 7 nmol/min/mL
- Km [4]: 130 µM

Molecule: CC[C@H](NC(=O)[C@@H]1CCCN1C(=O)CN)[13C](=O)O [GPA, glycyl-prolyl-2-aminobutyric[1-^13C] acid]
- Cumulative Per Cent of Dose Exhaled in 3 Hours ([5]; Day 1, CONTROL): 4.3 (± 0.8) Per Cent of Dose
- Cumulative Per Cent of Dose Exhaled in 3 Hours ([5]; Day 1, SEPSIS): 5.7 (± 1.4) Per Cent of Dose
- Cumulative Per Cent of Dose Exhaled in 3 Hours ([5]; Day 2, CONTROL): 8.9 (± 1.3) Per Cent of Dose
- Cumulative Per Cent of Dose Exhaled in 3 Hours ([5]; Day 2, SEPSIS): 22.5 (± 5.3) Per Cent of Dose
- Cumulative Per Cent of Dose Exhaled in 3 Hours ([5]; Day 6, CONTROL): 4.9 (± 0.8) Per Cent of Dose
- Cumulative Per Cent of Dose Exhaled in 3 Hours ([5]; Day 6, SEPSIS): 9.2 (± 6.3) Per Cent of Dose

Molecule: CC[C@H](NC(=O)[C@@H]1CCCN1C(=O)CN)C(=O)O [GPA, glycyl-prolyl-2-aminobutyric[1-^13C] acid] (H-Gly-Pro-[Abu]-OH)
- Km [4]: 200 µM

Molecule: CC[C@H](N)[13C](=O)O [L-2-aminobutyric[1-^13C] acid]
- cumulative oxidation, per cent of dose recovery ([6]; control group): 65±8.3 per cent of dose
- cumulative oxidation, per cent of dose recovery ([6]; test (septic) group): 72±9.4 per cent of dose

Molecule: N[C@@H](CCCN=C([15NH2])[15NH2])C(=O)O [L-arginine[guanidino-^15N2]]
- NOPI2 on Admission ([7]; 2 day average in ICU, rapid recovery, no sepsis, n = 4): 0.3 +/− 0.14 (n = 4)
- NOPI2 on Admission ([7]; 4 day average in ICU, recovery, sepsis treated successfully, n = 4): 2.99 +/− 1.24 (n = 4)
- NOPI2 on Admission ([7]; 7 day average in ICU, death from complications of sepsis and trauma, n = 3): 6.64 +/− 1.92 (n = 3)
- NOPI2 on Admission ([7]; Normal Control, healthy (not admitted), n = 4): 0.2 +/− 0.15 (n = 4)

Molecule: CCO[13C](=O)c1ccc(NC(=O)[C@H](CCCNC(=N)N)NC(=O)[C@@H]2CCCN2C(=O)[C@@H](Cc2ccccc2)NC(C)=O)cc1 [Substrate I, N-acetyl-d-phenylalanyl-L-prolyl-L-arginyl-p-aminobenzoic[1-^13C] acid, ethyl ester]
- Product formed, Plasmin [8]: 1.8 nmol/min/mL
- Product formed, Thrombin [9]: 6.0 nmol/min/mL

Molecule: CCO[13C](=O)[C@H](CC)NC(=O)[C@H](CCCNC(=N)N)NC(=O)[C@@H]1CCCN1C(=O)[C@@H](Cc1ccccc1)NC(C)=O [Substrate II, N-acetyl-d-phenylalanyl-L-prolyl-L-arginyl-L-2-aminobutyric[1-^13C] acid, ethyl ester]
- Product formed, Plasmin [8]: 2.3 nmol/min/mL
- Product formed, Thrombin [9]: 6.9 nmol/min/mL

Molecule: CCO[13C](=O)c1ccc(NC(=O)C(CCCNC(=N)N)NC(=O)C2CCCN2C(=O)CNC(C)=O)cc1 [Substrate III, N-acetyl-glycyl-L-prolyl-L-arginyl-p-aminobenzoic[1-^13C] acid, ethyl ester]
- Product formed, Plasmin [8]: 3.6 nmol/min/mL
- Product formed, Thrombin [9]: 6.6 nmol/min/mL

Molecule: CCO[13C](=O)[C@H](CC)NC(=O)[C@H](CCCNC(=N)N)NC(=O)[C@@H]1CCCN1C(=O)CNC(C)=O [Substrate IV, N-acetyl-glycyl-L-prolyl-L-arginyl-L-2-aminobutyric[1-^13C] acid, ethyl ester]
- NCP, net coagulant potential (difference between metaprobe IV and VI) ([10]; Control, Day 0): 11 ± 10%
- NCP, net coagulant potential (difference between metaprobe IV and VI) ([10]; Septic, Day 2): 62 ± 17%
- NCP, net coagulant potential (difference between metaprobe IV and VI) ([10]; Septic, Day 6): −13 ± 21%
- NCP, net coagulant potential (difference between metaprobe IV and VI) ([10]; Septic, Day 10): 2 ± 15%
- Product formed, Plasmin [8]: 3.1 nmol/min/mL
- Percent of Metaprobe Dose Metabolized ([11]; Control, Day 0): 22 ± 9%
- Percent of Metaprobe Dose Metabolized ([11]; Septic, Day 2): 76 ± 15%
- Percent of Metaprobe Dose Metabolized ([11]; Septic, Day 6): 39 ± 12%
- Percent of Metaprobe Dose Metabolized ([11]; Septic, Day 10): 25 ± 10%
- Product formed, Thrombin [9]: 7.8 nmol/min/mL

Molecule: CCO[13C](=O)c1ccc(NC(=O)[C@H](CCCCN)NC(=O)[C@H](CC(C)C)NC(=O)[C@@H](N)CC(C)C)cc1 [Substrate V, L-leucyl-L-leucyl-L-lysyl-p-aminobenzoic[1-^13C] acid, ethyl ester]
- Product formed, Plasmin [8]: 7.2 nmol/min/mL
- Product formed, Thrombin [9]: 0.3 nmol/min/mL

Molecule: CCO[13C](=O)[C@H](CC)NC(=O)[C@H](CCCCN)NC(=O)[C@H](CC(C)C)NC(=O)[C@@H](N)CC(C)C [Substrate VI, L-leucyl-L-leucyl-L-lysyl-L-2-aminobutyric[1-^13C] acid, ethyl ester]
- Percent of Metaprobe Dose Metabolized ([12]; Control, Day 0): 11 ± 5%
- Percent of Metaprobe Dose Metabolized ([12]; Septic, Day 2): 14 ± 7%
- Percent of Metaprobe Dose Metabolized ([12]; Septic, Day 6): 52 ± 17%
- Percent of Metaprobe Dose Metabolized ([12]; Septic, Day 10): 23 ± 12%
- Product formed, Plasmin [8]: 8.1 nmol/min/mL
- Product formed, Thrombin [9]: 0.4 nmol/min/mL

Molecule: gylcyl-prolyl-p-aminobenzoic[1-^13C] acid [GPPaba]
- specific activity of plasma towards substrate [3, 13]: 18 ± 7 nmol/min/mL
- specific activity of plasma towards substrate ([3]; septic, day six): 30 ± 6 nmol/min/mL
- specific activity of plasma towards substrate ([3]; septic, day two): 55 ± 17 nmol/min/mL
